Reference: PMC9404985, “Development of Dicationic Bisguanidine-Arylfuran Derivatives as Potent Agents against Gram-Negative Bacteria” (Antibiotics, 2022)
Read-outs that look alike come from different tables or passages of the source.

What was measured:
[1] = test system: A. baumannii (CCUG #57035); assay: Antibacterial activity against isolates (Omnilog, Biolog redox dye); format: cell-based, Acinetobacter baumannii; settings: for EC50 / EC90: Acinetobacter baumannii, CCUG57035, ca-MH broth, 24 h, 37 °C; for Selectivity index A. baumannii (CCUG #57035): SI = ((EC50 MCF-7 + EC50 HepG2)/2)/EC50 bacterial strain
Method: (§1) The antibacterial activities of eight compounds (1, 3, 4, 6, 8, 10, 16, and 17) were tested against 10 different isolates of Gram-negative bacteria from human and other sources, two E. coli (CCUG #67180 and CCUG #17620/ATCC #25922, control strain), two K. pneumoniae (CCUG #58547 and CCUG #225T), two P. aeruginosa (CCUG #17619 and CCUG #59347), two A. baumannii (CCUG #57035 and CCUG #57250), E. cloacae (CCUG #6323T), and E. hormaechei (CCUG #58962) in a 96-well plate format. […] Bacterial mass from the ten isolates grown overnight on horse blood or Mueller–Hinton agar plates was suspended in ca-MH and adjusted to a final inoculum cell density of ~5 × 10^5 CFU/mL. For all assays, Biolog redox dye A diluted 100× from the stock solution was used for measurements of all ten isolates (up to a total volume of 120 µL per well). All plates included one well per isolate with only inoculum and dye but no test compound (i.e., positive control) and one well per isolate with inoculum, dye and DMSO diluted 1667×, corresponding to the DMSO concentration in the wells with the highest concentration of test compound. All measurements were performed using the Omnilog microplate reader (Biolog, Hayward, CA, USA) where the 96-well plates were read at 15 min intervals for a total of 24 h at 37 °C.

Plasmodium falciparum = test system: Plasmodium falciparum; parameters: method as in PMID 28674055; settings: erythrocyte stage; cited from earlier work
Trypanosoma cruzi = test system: Trypanosoma cruzi; parameters: method as in earlier work; settings: PubChem AID 1314398; read-out: effective against Trypanosoma cruzi; cited from earlier work
[2] = test system: E. coli (CCUG #17620/ ATCC #25922); assay: Antibacterial activity against isolates (Omnilog, Biolog redox dye); format: cell-based, Escherichia coli; settings: for EC50 / EC90: Escherichia coli, ca-MH broth, 24 h, 37 °C; for Selectivity index E. coli (CCUG #17620/ ATCC #25922): SI = ((EC50 MCF-7 + EC50 HepG2)/2)/EC50 bacterial strain
Method: (§2) The antibacterial activities of eight compounds (1, 3, 4, 6, 8, 10, 16, and 17) were tested against 10 different isolates of Gram-negative bacteria from human and other sources, two E. coli (CCUG #67180 and CCUG #17620/ATCC #25922, control strain), two K. pneumoniae (CCUG #58547 and CCUG #225T), two P. aeruginosa (CCUG #17619 and CCUG #59347), two A. baumannii (CCUG #57035 and CCUG #57250), E. cloacae (CCUG #6323T), and E. hormaechei (CCUG #58962) in a 96-well plate format. The compounds to test were 3-fold diluted in six steps in cation-adjusted Mueller-Hinton (ca-MH) broth to final concentrations spanning from 30 to 0.12 µM, i.e., a 1667–416,667 times dilution from the 50 mM stocks. Bacterial mass from the ten isolates grown overnight on horse blood or Mueller–Hinton agar plates was suspended in ca-MH and adjusted to a final inoculum cell density of ~5 × 10^5 CFU/mL. For all assays, Biolog redox dye A diluted 100× from the stock solution was used for measurements of all ten isolates (up to a total volume of 120 µL per well). All plates included one well per isolate with only inoculum and dye but no test compound (i.e., positive control) and one well per isolate with inoculum, dye and DMSO diluted 1667×, corresponding to the DMSO concentration in the wells with the highest concentration of test compound. All measurements were performed using the Omnilog microplate reader (Biolog, Hayward, CA, USA) where the 96-well plates were read at 15 min intervals for a total of 24 h at 37 °C.

E. coli (CCUG #67180) = assay: as above; format: cell-based, Escherichia coli; settings: for EC90 / EC50: Escherichia coli, ca-MH broth, 24 h, 37 °C; for EC90: CCUG67180, 24 h; for EC50: CCUG67180; for Selectivity index E. coli (CCUG #67180): SI = ((EC50 MCF-7 + EC50 HepG2)/2)/EC50 bacterial strain
Method: as §2

[3] = test system: P. aeruginosa (CCUG #17619); assay: as above; format: cell-based, Pseudomonas aeruginosa; settings: for EC50 / EC90: Pseudomonas aeruginosa, CCUG17619, ca-MH broth, 24 h, 37 °C; for Selectivity index P. aeruginosa (CCUG #17619): SI = ((EC50 MCF-7 + EC50 HepG2)/2)/EC50 bacterial strain
Method: as §2

[4] = test system: K. pneumoniae (CCUG #58547); assay: as above; format: cell-based, Klebsiella pneumoniae; settings: for EC50 / EC90: Klebsiella pneumoniae, CCUG58547, ca-MH broth, 24 h, 37 °C; for Selectivity index K. pneumoniae (CCUG #58547): SI = ((EC50 MCF-7 + EC50 HepG2)/2)/EC50 bacterial strain
Method: as §1

[5] = test system: P. putida (NBRC/ATCC #100650); assay: Antibacterial resazurin assay, laboratory strain; settings: for EC90: read-out: Ppu EC90; for Selectivity index P. putida: mean of MCF-7 and HepG2 EC50 over bacterial EC50, laboratory strain
[6] = test system: E. hormaechei (CCUG #58962); assay: Antibacterial activity against isolates (Omnilog, Biolog redox dye); format: cell-based, Enterobacter hormaechei; settings: for EC50 / EC90: Enterobacter hormaechei, CCUG58962, ca-MH broth, 24 h, 37 °C; for Selectivity index E. hormaechei (CCUG #58962): SI = ((EC50 MCF-7 + EC50 HepG2)/2)/EC50 bacterial strain
Method: as §1

[7] = Pseudomonas putida, ATCC100650, 18 h, read-out: Ppu EC50, laboratory strain, 18 h, 37 °C, AlamarBlue
[8] = Pseudomonas putida, ATCC100650, 18 h
[9] = read-out: Ppu EC50, laboratory strain, 18 h, 37 °C, AlamarBlue

SMILES | EC50 [1] [µM] | EC90 [1] [µM] | Selectivity index A. baumannii (CCUG #57035) [1] | EC50 [2] [µM] | EC90 [2] [µM] | Selectivity index E. coli (CCUG #17620/ ATCC #25922) [2] | EC90 (E. coli (CCUG #67180)) [µM] | EC50 (E. coli (CCUG #67180)) [µM] | Selectivity index E. coli (CCUG #67180) (E. coli (CCUG #67180)) | EC50 [3] [µM] | EC90 [3] [µM] | Selectivity index P. aeruginosa (CCUG #17619) [3] | EC50 [4] [µM] | EC90 [4] [µM] | Selectivity index K. pneumoniae (CCUG #58547) [4] | EC50 [5, 7] [µM] | EC90 [5, 8] [µM] | Selectivity index P. putida [5] | EC50 [6] [µM] | EC90 [6] [µM] | also measured
N=C(N)Nc1ccc(-c2ccc(-c3ccc(NC(=N)N)cc3Cl)o2)c(Cl)c1 [Compound 1, 2,5-Bis(2-chloro-4-guanidinophenyl)furan] | 4.7 | 6.3 | 8.3 | 3.9 | 6.3 | 9.9 | 3.8 | 3.2 | 12.2 | 4.8 | 6.7 | 8.1 | 5.2 | 8 | 7.5 | 258 | 517 | 0.2 | 7.7 | 9.1 | EC50 (Plasmodium falciparum): 0.59 µM; EC50 (Trypanosoma cruzi): 0.29 µM; Selectivity index E. hormaechei (CCUG #58962) [6]: 5.0
N=C(N)Nc1ccc(-c2ccc(-c3ccc(NC(=N)N)cc3)o2)cc1 [Compound 3] | 1.6 | 2.4 | – | 1.6 | 2.2 | 76.6 | – | 5.3 | 23.7 | 9 | 11.1 | 13.8 | 5.6 | 8.3 | 22.1 | 8.3 | 14.3 | 15.0 | 7.6 | 9.1 | Selectivity index E. hormaechei (CCUG #58962) [6]: 16.4
Cc1cc(NC(=N)N)ccc1-c1ccc(-c2ccc(NC(=N)N)cc2C)o1 [Compound 4, 2,5-Bis(4-guanidino-2-methylphenyl)furan] | 16 | 23.5 | 4.7 | 11.3 | 18.3 | 6.7 | 25.3 | 23.1 | 3.3 | 17.9 | 25.4 | 4.2 | 17.1 | 22.4 | 4.4 | ~14.4 | 59.6 | 5.2 | 21.9 | 25.9 | EC50 [5, 9]: 14.5 µM; Selectivity index E. hormaechei (CCUG #58962) [6]: 3.4
COc1cc(NC(=N)N)ccc1-c1ccc(-c2ccc(NC(=N)N)cc2OC)o1 [Compound 6, 2,5-Bis(4-guanidino-2-methoxyphenyl)furan] | 6.8 | 11 | 21.3 | 6.2 | 7.5 | 23.1 | 74.4 | 63.4 | 2.3 | 24.6 | 28.7 | 5.9 | 13 | 13.7 | 11.1 | ~14.4 | 19.7 | 10.1 | 15.9 | 22.9 | EC50 [5, 9]: 14.3 µM; Selectivity index E. hormaechei (CCUG #58962) [6]: 9.0
COC(=O)c1cc(NC(=N)N)ccc1-c1ccc(-c2ccc(NC(=N)N)cc2C(=O)OC)o1 [Compound 8, 2,5-Bis(4-guanidino-2-(methylcarboxy)phenyl)furan] | 5.2 | 7 | 47.2 | 6 | 8.2 | 40.5 | 67.5 | 53.4 | 4.6 | > 200 | > 200 | – | 10.3 | 13.3 | 23.6 | 68.4 | 92.1 | 3.6 | 8.3 | 8.7 | Selectivity index E. hormaechei (CCUG #58962) [6]: 29.4
N=C(N)NCc1ccc(-c2ccc(-c3ccc(CNC(=N)N)cc3)o2)cc1 [Compound 10, 2,5-Bis(4-guanidinomethylphenyl)furan] | > 200 | > 200 | – | 151 | 179 | 0.6 | > 200 | 188 | 0.5 | > 200 | > 200 | – | > 200 | > 200 | – | 25.6 | 36.7 | 3.6 | > 200 | > 200 | –
N=C(N)Nc1ccc(-c2ccc(C(=O)N3CCc4cc(NC(=N)N)ccc43)o2)c(Cl)c1 [Compound 16, (5-(2-chloro-4-guanidinophenyl)furan-2-yl)(5-guanidinoindolin-1-yl)methanone] | 16.5 | 24.4 | 12.7 | 13.6 | 19.7 | 15.4 | 27.1 | 23 | 9.1 | 17.1 | 22.9 | 12.2 | 12.9 | 15.3 | 16.2 | 94.2 | 147 | 2.2 | 12.7 | 14.7 | Selectivity index E. hormaechei (CCUG #58962) [6]: 16.4
N=C(N)Nc1ccc(-c2ccc(C(=O)N3CCc4cc(NC(=N)N)ccc43)o2)cc1 [Compound 17, (5-(4-guanidinophenyl)furan-2-yl)(5-guanidinoindolin-1-yl)methanone] | 148 | > 200 | 1.3 | 16.4 | 24 | 11.8 | 19.9 | 14.2 | 13.7 | 22.9 | 27 | 8.5 | > 200 | > 200 | – | 73.9 | 98 | 2.6 | > 200 | > 200 | –
